Literature values as cited in patent US20210198302A1, “OLIGOSACCHARIDE COMPOSITIONS AND METHODS OF USE THEREOF FOR REDUCING AMMONIA LEVELS” (Kaleido Biosciences, Inc., priority 2018, published 2021).

Tested on: OHE patients
Settings: administered in combination with lactulose

CO[C@H]1/C=C/O[C@@]2(C)Oc3c(C)c(O)c4c(O)c(c5c(nc6cc(C)ccn65)c4c3C2=O)NC(=O)/C(C)=C\C=C\[C@H](C)[C@H](O)[C@@H](C)[C@@H](O)[C@@H](C)[C@H](OC(C)=O)[C@@H]1C [rifaximin]
reduction of episodes of OHE: approximately 50%
